Results from patent US11680056B2, “MK2 inhibitors and uses thereof” (Xinthera, Inc., priority 2021, dated 2023).
Read-outs that look alike come from different tables or passages of the source.

How the values were obtained:
p38a/MK2 = p38a/MK2 (Homo sapiens (Human), UniProt P49137+Q16539); assay: p38a/MK2 biochemical assay: activation of MK2 by p38, FITC-HSP27 peptide phosphorylation (IMAP FP); settings: 10-point 1:3 dilution, 60 pM active p38a, 1 nM inactive MK2, 10 μM ATP, 2 h incubation
p38a/PRAK = p38a/PRAK (Homo sapiens (Human), UniProt Q16539); assay: p38a/PRAK biochemical assay: activation of PRAK by p38, FITC-HSP27 peptide phosphorylation (IMAP FP); settings: 10-point 1:3 dilution, top dose 300 μM; 60 pM active p38a, 1 nM inactive PRAK, 10 μM ATP, 2 h incubation; read-out: p38a/PRAK Enzyme pIC50 (converted)
Chain of p38a/PRAK (Q16539 whole entry): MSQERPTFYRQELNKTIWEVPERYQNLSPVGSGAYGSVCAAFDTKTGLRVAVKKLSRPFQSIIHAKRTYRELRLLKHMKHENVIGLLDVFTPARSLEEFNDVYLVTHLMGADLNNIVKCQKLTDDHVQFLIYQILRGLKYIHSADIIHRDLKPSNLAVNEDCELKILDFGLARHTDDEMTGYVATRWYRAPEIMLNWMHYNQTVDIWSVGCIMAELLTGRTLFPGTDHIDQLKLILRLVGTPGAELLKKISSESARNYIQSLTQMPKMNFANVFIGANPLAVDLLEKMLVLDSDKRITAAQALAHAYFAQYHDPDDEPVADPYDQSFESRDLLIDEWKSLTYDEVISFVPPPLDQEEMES
In short: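 GST-tagged MK2 (F46–H400) and PRAK (M1–Q471), expressed in E. coli, activated by p38 and phosphorylate FITC-HSP27 peptide over 2 h with compound; readout by IMAP fluorescence polarisation (ex 485/em 528 nm). Ten-point 1:3 dilutions, top dose 1 μM for MK2 and 300 μM for PRAK. IC50 after vehicle normalisation; selectivity = IC50(PRAK)/IC50(MK2).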

[1] = top dose 10 μM, read-out: p38a/MK2 (10 μM) Enzyme pIC50 (converted)
[2] = top dose 1 μM, read-out: p38a/MK2 (1 μM) Enzyme pIC50 (converted)

Chain of p38a/MK2 (P49137 46-400): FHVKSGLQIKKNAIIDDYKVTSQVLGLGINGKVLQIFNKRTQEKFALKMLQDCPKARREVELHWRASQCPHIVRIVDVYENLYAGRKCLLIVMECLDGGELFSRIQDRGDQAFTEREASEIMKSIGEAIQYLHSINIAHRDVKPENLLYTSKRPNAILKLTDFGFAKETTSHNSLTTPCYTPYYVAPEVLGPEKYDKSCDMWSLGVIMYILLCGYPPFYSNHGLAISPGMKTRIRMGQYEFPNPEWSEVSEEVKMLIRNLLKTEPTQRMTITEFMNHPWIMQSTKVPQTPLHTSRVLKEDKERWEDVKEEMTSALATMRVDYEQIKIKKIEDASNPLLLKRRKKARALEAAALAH
Chain of p38a/MK2 (Q16539 whole entry): as the sequence (Q16539 whole entry) above

| IC50 (p38a/PRAK) [µM] | IC50 (p38a/MK2; [1]) [µM] | IC50 (p38a/MK2; [2]) [µM] | SMILES | p38a/MK2 (10 μM) Enzyme pIC50 (p38a/MK2; top dose 10 μM) |
| --- | --- | --- | --- | --- |
| > 316 | 5.01 | – | Cc1cnc(-c2ccnc(C(C)(C)O)n2)cc1-n1c(C)cc(OCc2cc(C(F)F)ccn2)c(Cl)c1=O (single isomer, unassigned) [Example 27B, rel-3-chloro-4-{[4-(difluoromethyl)pyridin-2-yl]methoxy}-2′-[2-(2-hydroxypropan-2-yl)pyrimidin-4-yl]-5′,6-dimethyl-[1,4′-bipyridin]-2-one] | – |
| 31.6 | – | 0.1 | Cc1cnc(-c2ccnc(C(C)(C)O)c2)cc1-n1c(C)cc(OCc2ncc(F)cc2F)c(Cl)c1=O (single isomer, unassigned) [Example 38A, rel-3-chloro-4-[(3,5-difluoropyridin-2-yl)methoxy]-2′-[2-(2-hydroxypropan-2-yl)pyridin-4-yl]-5′,6-dimethyl-[1,4′-bipyridin]-2-one] | – |
| 1.58 | – | 0.002 | Cc1cnc(-c2ccnc(C(C)(C)O)c2F)cc1-n1c(C)cc(OCc2ncc(F)cc2F)c(Cl)c1=O (atropisomer, axis not shown) [Example 56A, 3-chloro-4-[(3,5-difluoropyridin-2-yl)methoxy]-1-[3′-fluoro-2′-(2-hydroxypropan-2-yl)-5-methyl-[2,4′-bipyridin]-4-yl]-6-methylpyridin-2-one] | – |
| 3.98 | – | 0.01 | Cc1cnc(-c2ccnc(C3(O)CC3)n2)cc1-n1c(C)cc(OCc2ncc(F)cc2F)c(Cl)c1=O (single isomer, unassigned) [Example 3A, rel-3-chloro-4-[(3,5-difluoropyridin-2-yl)methoxy]-2′-[2-(1-hydroxycyclopropyl)pyrimidin-4-yl]-5′,6-dimethyl-[1,4′-bipyridin]-2-one] | – |
| > 316 | > 10 | – | Cc1cc(COc2cc(C)n(-c3cc(-c4ccnc(C(C)(C)O)n4)ncc3C)c(=O)c2Cl)ncc1F (single isomer, unassigned) [Example 22B, rel-3-chloro-4-[(5-fluoro-4-methylpyridin-2-yl)methoxy]-2′-[2-(2-hydroxypropan-2-yl)pyrimidin-4-yl]-5′,6-dimethyl-[1,4′-bipyridin]-2-one] | – |
| 12.6 | – | 0.00316 | Cc1cnc(COc2cc(C)n(-c3cc(-c4ccnc(C(C)(C)O)n4)ncc3C)c(=O)c2Cl)c(F)c1 (single isomer, unassigned) [Example 23A, rel-3-chloro-4-[(3-fluoro-5-methylpyridin-2-yl)methoxy]-2′-[2-(2-hydroxypropan-2-yl)pyrimidin-4-yl]-5′,6-dimethyl-[1,4′-bipyridin]-2-one] | – |
| > 316 | – | > 1 | [2H]C([2H])(Oc1cc(C)n(-c2c(C)cnc(-c3ccnc(C(C)(C)CO)n3)c2F)c(=O)c1Cl)c1ncc(F)cc1F (single isomer, unassigned) [Example 59A, rel-3-chloro-4-((3,5-difluoropyridin-2-yl)methoxy-d2)-3′-fluoro-2′-(2-(1-hydroxy-2-methylpropan-2-yl)pyrimidin-4-yl)-5′,6-dimethyl-2H-[1,4′-bipyridin]-2-one] | – |
| > 316 | – | > 1 | Cc1cnc(-n2ccc(C(C)(C)CO)n2)cc1-n1c(C)cc(OCc2ncc(F)cc2F)c(Cl)c1=O (single isomer, unassigned) [Example 37B, rel-3-chloro-4-[(3,5-difluoropyridin-2-yl)methoxy]-2′-[3-(1-hydroxy-2-methylpropan-2-yl)pyrazol-1-yl]-5′,6-dimethyl-[1,4′-bipyridin]-2-one] | – |
| > 316 | 3.16 | – | Cc1cnc(-c2ccn(C(C)(C)CO)n2)cc1-n1c(C)cc(OCc2ncc(F)cc2F)c(Cl)c1=O (single isomer, unassigned) [Example 25B, rel-3-chloro-4-[(3,5-difluoropyridin-2-yl)methoxy]-2′-[1-(1-hydroxy-2-methylpropan-2-yl)pyrazol-3-yl]-5′,6-dimethyl-[1,4′-bipyridin]-2-one] | – |
| 6.31 | – | 0.501 | Cc1cnc(-c2nc(C(C)(C)O)n(C)n2)cc1-n1c(C)cc(OCc2ncc(F)cc2F)c(Cl)c1=O (single isomer, unassigned) [Example 42A, rel-3-chloro-4-[(3,5-difluoropyridin-2-yl)methoxy]-2′-[5-(2-hydroxypropan-2-yl)-1-methyl-1,2,4-triazol-3-yl]-5′,6-dimethyl-[1,4′-bipyridin]-2-one] | – |
| 126 | 0.0631 | – | Cc1cnc(-c2ccnc(C(C)(C)O)n2)cc1-n1c(C)cc(OCc2cc(C(F)F)ccn2)c(Cl)c1=O (single isomer, unassigned) [Example 27A, rel-3-chloro-4-{[4-(difluoromethyl)pyridin-2-yl]methoxy}-2′-[2-(2-hydroxypropan-2-yl)pyrimidin-4-yl]-5′,6-dimethyl-[1,4′-bipyridin]-2-one] | – |
| 39.8 | 2.51 | – | Cc1sc(-c2ccnc(C(C)(C)O)n2)nc1-n1c(C)cc(OCc2ncc(F)cc2F)c(Cl)c1=O [Example 17, 3-chloro-4-[(3,5-difluoropyridin-2-yl)methoxy]-1-{2-[2-(2-hydroxypropan-2-yl)pyrimidin-4-yl]-5-methyl-1,3-thiazol-4-yl}-6-methylpyridin-2-one] | – |
| 3.16 | 2 | – | Cc1cnc(-c2nc(C(C)(C)O)ncc2C2CC2)cc1-n1c(C)cc(OCc2ncc(F)cc2F)c(Cl)c1=O (single isomer, unassigned) [Example 31A, rel-3-chloro-2′-(5-cyclopropyl-2-(2-hydroxypropan-2-yl)pyrimidin-4-yl)-4-((3,5-difluoropyridin-2-yl)methoxy)-5′,6-dimethyl-2H-[1,4′-bipyridin]-2-one] | – |
| > 316 | – | > 1 | Cc1cnc(-n2ccc(CC(C)(C)O)n2)cc1-n1c(C)cc(OCc2ncc(F)cc2F)c(Cl)c1=O (single isomer, unassigned) [Example 46B, rel-3-chloro-4-[(3,5-difluoropyridin-2-yl)methoxy]-2′-[3-(2-hydroxy-2-methylpropyl)pyrazol-1-yl]-5′,6-dimethyl-[1,4′-bipyridin]-2-one] | – |
| > 316 | – | > 1 | Cc1cnc(-c2ccnc(C(C)(C)O)c2)cc1-n1c(C)cc(OCc2ncc(F)cc2F)c(Cl)c1=O (single isomer, unassigned) [Example 38B, rel-3-chloro-4-[(3,5-difluoropyridin-2-yl)methoxy]-2′-[2-(2-hydroxypropan-2-yl)pyridin-4-yl]-5′,6-dimethyl-[1,4′-bipyridin]-2-one] | – |
| 5.01 | 0.02 | – | Cc1cnc(-c2ccnc(C3(O)CC3)n2)cc1-n1c(C)cc(OCc2ncc(F)cc2F)c(Cl)c1=O (atropisomer, axis not shown) [Example 3, 3-chloro-4-[(3,5-difluoropyridin-2-yl)methoxy]-2′-[2-(1-hydroxycyclopropyl)pyrimidin-4-yl]-5′,6-dimethyl-[1,4′-bipyridin]-2-one] | – |
| > 316 | – | > 1 | Cc1cnc(-c2ccnc(C(C)(C)O)n2)c(F)c1-n1c(C)cc(OCc2ncc(F)cc2F)c(Cl)c1=O (single isomer, unassigned) [Example 53A, rel-3-chloro-4-[(3,5-difluoropyridin-2-yl)methoxy]-3′-fluoro-2′-[2-(2-hydroxypropan-2-yl)pyrimidin-4-yl]-5′,6-dimethyl-[1,4′-bipyridin]-2-one] | – |
| > 316 | – | > 1 | Cc1cnc(-c2nc(C(C)(C)O)n(C)n2)cc1-n1c(C)cc(OCc2ncc(F)cc2F)c(Cl)c1=O (single isomer, unassigned) [Example 42B, rel-3-chloro-4-[(3,5-difluoropyridin-2-yl)methoxy]-2′-[5-(2-hydroxypropan-2-yl)-1-methyl-1,2,4-triazol-3-yl]-5′,6-dimethyl-[1,4′-bipyridin]-2-one] | – |

| SMILES | IC50 (p38a/PRAK) [µM] | IC50 (p38a/MK2; [1]) [µM] | IC50 (p38a/MK2; [2]) [µM] | p38a/MK2 (10 μM) Enzyme pIC50 (p38a/MK2; top dose 10 μM) |
| --- | --- | --- | --- | --- |
| Cc1cnc(-c2ccnc(C(C)(C)CO)n2)cc1-n1c(C)cc(OCc2ncc(F)cc2F)c(Cl)c1=O (atropisomer, axis not shown) [Example 4, 3-chloro-4-[(3,5-difluoropyridin-2-yl)methoxy]-2′-[2-(1-hydroxy-2-methylpropan-2-yl)pyrimidin-4-yl]-5′,6-dimethyl-[1,4′-bipyridin]-2-one] | 7.94 | – | – | 7.8 |
| Cc1cnc(-c2ccnc(C(C)(C)C(F)F)n2)cc1-n1c(C)cc(OCc2ncc(F)cc2F)c(Cl)c1=O (atropisomer, axis not shown) [Example 5, 3-chloro-2′-[2-(1,1-difluoro-2-methylpropan-2-yl)pyrimidin-4-yl]-4-[(3,5-difluoropyridin-2-yl)methoxy]-5′,6-dimethyl-[1,4′-bipyridin]-2-one] | 3.16 | – | – | 7.8 |
| Cc1cnc(-c2ccnc([C@@](C)(O)C3CC3)n2)cc1-n1c(C)cc(OCc2ncc(F)cc2F)c(Cl)c1=O (single isomer, unassigned) [Example 6D, rel-3-chloro-2′-[2-(1-cyclopropyl-1-hydroxyethyl)pyrimidin-4-yl]-4-[(3,5-difluoropyridin-2-yl)methoxy]-5′,6-dimethyl-[1,4′-bipyridin]-2-one] | > 316 | 2.51 | – | – |
| Cc1cnc(-c2ccnc(C(C)(C)C(F)F)n2)cc1-n1c(C)cc(OCc2ncc(F)cc2F)c(Cl)c1=O (single isomer, unassigned) [Example 5A, rel-3-chloro-2′-[2-(1,1-difluoro-2-methylpropan-2-yl)pyrimidin-4-yl]-4-[(3,5-difluoropyridin-2-yl)methoxy]-5′,6-dimethyl-[1,4′-bipyridin]-2-one] | 2.51 | 0.00631 | – | – |
